According to ChEMBL document CHEMBL2021896, “A novel pyrimidine derivatives with aryl urea, thiourea and sulfonamide moieties: synthesis, anti-inflammatory and antimicrobial evaluation” (2012):
Calls of active or inactive are those of the source. The rule behind the calls is not given here.

What was measured:
THP-1 [1] = assay: Antiinflammatory activity in human PMA-stimulated THP1 cells assessed as inhibition of LPS-induced IL-6 production at 1 uM treated 30 mins before LPS challenge measured after 24 hrs by ELISA; assay type: functional
THP-1 [2] = assay: Antiinflammatory activity in human PMA-stimulated THP1 cells assessed as inhibition of LPS-induced TNFalpha production at 1 uM treated 30 mins before LPS challenge measured after 24 hrs by ELISA; assay type: functional
Fusarium solani = assay: Antifungal activity against Fusarium solani up to 200 ug/ml by agar well diffusion method; assay type: functional, organism-based
Aspergillus flavus = assay: Antifungal activity against Aspergillus flavus up to 200 ug/ml by agar well diffusion method; assay type: functional, organism-based
Salmonella typhimurium = assay: Antibacterial activity against Salmonella typhimurium up to 200 ug/ml by agar well diffusion method; assay type: functional, organism-based; details: Salmonella enterica subsp. enterica serovar Typhimurium
Staphylococcus aureus = assay: Antibacterial activity against Staphylococcus aureus up to 200 ug/ml by agar well diffusion method; assay type: functional, organism-based
Candida albicans = assay: Antifungal activity against Candida albicans up to 200 ug/ml by agar well diffusion method; assay type: functional, organism-based
Escherichia coli = assay: Antibacterial activity against Escherichia coli up to 200 ug/ml by agar well diffusion method; assay type: functional, organism-based
THP-1 [3] = assay: Antiinflammatory activity in human PMA-stimulated THP1 cells assessed as inhibition of LPS-induced TNFalpha production at 10 uM treated 30 mins before LPS challenge measured after 24 hrs by ELISA; assay type: functional
Aspergillus niger = assay: Antifungal activity against Aspergillus niger up to 200 ug/ml by agar well diffusion method; assay type: functional, organism-based
THP-1 [4] = assay: Antiinflammatory activity in human PMA-stimulated THP1 cells assessed as inhibition of LPS-induced IL-6 production at 10 uM treated 30 mins before LPS challenge measured after 24 hrs by ELISA; assay type: functional
Bacillus subtilis = assay: Antibacterial activity against Bacillus subtilis up to 200 ug/ml by agar well diffusion method; assay type: functional, organism-based

| SMILES | inhibition at 1 µM (THP-1 [1]) | inhibition at 1 µM (THP-1 [2]) | Activity (Fusarium solani) | Activity (Aspergillus flavus) | Activity (Salmonella typhimurium) | Activity (Staphylococcus aureus) | Activity (Candida albicans) | Activity (Escherichia coli) | inhibition at 10 µM (THP-1 [3]) | Activity (Aspergillus niger) | inhibition at 10 µM (THP-1 [4]) | Activity (Bacillus subtilis) |
| --- | --- | --- | --- | --- | --- | --- | --- | --- | --- | --- | --- | --- |
| C[C@@H]1C[C@H]2[C@@H]3CCC4=CC(=O)C=C[C@]4(C)[C@@]3(F)[C@@H](O)C[C@]2(C)[C@@]1(O)C(=O)CO [DEXAMETHASONE] | 86% | 72% | – | – | – | – | – | – | – | – | – | – |
| O=[N+]([O-])c1ccc(-c2cc(Nc3cccc(C(F)(F)F)c3)ncn2)cc1 | – | – | inactive | inactive | inactive | inactive | inactive | inactive | 0% | inactive | 0% | inactive |
